Results as given in patent publication US6767916B2 (Indena S.p.A., priority 1999, dated 2004).

Experiments:
[1] = cytotoxicity of compounds tested alone against drug-resistant cancer cells; format: cell-based; settings: human, MDA-435/LCC-MDR drug-resistant cancer cells, read-out: cytotoxicity IC50, compound alone
Description: Compounds VIB 106 and VIB 122 were tested for their cytotoxicity against drug-resistant cancer cells, both alone, and in combination with paclitaxel.
The treatment consisted of concurrent exposure of MDA-435/LCC-MDR cells to paclitaxel in the presence or absence of the compounds reversing agent (1 μM) for 72 h in vitro. Assessment of cytotoxicity, i.e. cell growth inhibition, was determined according to the methods of Skehan, et al. as discussed in J. Nat. Cancer Inst., 82, 1107,1990. Briefly, cells were plated between 400 and 1200 cells/well in 96 well plates and incubated at 37° C. for 15-18 h prior to drug addiction to allow attachment of cells. Compounds were solubilized in 100% DMSO and further diluted in RPMI-1640 containing 10 mM HEPES. After a 72 h incubation, 100 μl of ice-cold 50% TCA was added to each well and incubated for 1 h at 4° C. Plates were then washed 5 times with tap water to remove TCA, low-molecular weight metabolites and serum proteins. Sulforhodamine B (SRB) (0.4%, 50 μl) was added to each well. Following a five minute incubation at room temperature, plates were rinsed 5 times with 0.1% acetic acid and air dried. Bound dye was solubilized with 10 mM Tris Base (pH 10.5) for 5 min on a gyratory shaker. Optical density was measured at 570 nm. [drawing 4] [drawing 5] [drawing 6] [drawing 7]

[2] = tested on: drug-resistant breast cancer cells MDA435/LCC6-MDR; assay: cytostatic activity in combination with paclitaxel (SRB cell growth inhibition); format: cell-based; settings: IC50 of paclitaxel in presence or absence of compound (reversing agent 1 μM), 72 h
Description: Following a five minute incubation at room temperature, plates were rinsed 5 times with 0.1% acetic acid and air dried. Bound dye was solubilized with 10 mM Tris Base (pH 10.5) for 5 min on a gyratory shaker.

Compound	IC50 at 72 h [1]	IC50 [2]
CC(C)=CCOc1ccc2c(C)cc(=O)oc2c1C(=O)C=Cc1cccnc1	> 1000 nM	
C=C(C)COc1ccc2c(C)cc(=O)oc2c1C(=O)C=Cc1cccnc1 [VIB 122, 1-[4-Methyl-7-(2-methylallyloxy)coumarin8-yl]-3-(pyridine-3-yl)propen-1-one]	> 1000 nM	
CC(=O)O[C@H]1C(=O)[C@@]2(C)[C@H]([C@H](OC(=O)c3ccccc3)[C@]3(O)C[C@H](OC(=O)[C@H](O)[C@@H](NC(=O)c4ccccc4)c4ccccc4)C(C)=C1C3(C)C)[C@]1(OC(C)=O)CO[C@@H]1C[C@@H]2O [Paclitaxel]		426 nM
